Read-outs that look alike come from different tables or passages of the source. Marks after values point to notes of the source that are not given here.
How the values were obtained:
[1] = Iron chelation in solution: fluorescence dequenching of iron-quenched calcein; conditions: Fe-CAL in HBS pH 7.4, room temperature, 1 h incubation, read-out: half maximal dequenching level
Experimental: Iron binding was determined by the chelator capacity for restoring the fluorescence of iron-quenched calcein (CAL), a dynamic fluorescent metallosensor. The iron-scavenging properties of the chelators were assessed in solution, by mixing iron salts with free CAL.
Iron precomplexed calcein (Fe-CAL) solutions of 1 μm (in Hepes 20 mM buffered saline, pH 7.4=HBS) were incubated in the presence of the indicated concentrations of different chelators at room temperature and the fluorescence intensity (475 nm->520 nm) followed with time in a Tecan fluorescence plate reader, using 96-well culture plates (Nunc) at 100 μl final volume. The time-dependent complexation of iron from Fe-CAL by the chelators was followed by fluorescence dequenching. The fluorescence intensity attained after 1 h incubation is shown as a function of the chelator concentration.
The corresponding half maximal dequenching level for the corresponding chelator was (in μM) (rank order from the fastest acting to the slowest): […]

[2] = tested on: human erythroleukemia K562 cells; test: Iron permeation of the chelators into calcein-loaded K562 cells; assay type: cell-based; conditions: 5 μM chelator, 37° C.
Experimental: The iron-scavenging properties of the chelators were assessed in human erythroleukemia K562 cells, by loading with the permeant CAL-AM probe, in situ formation of free CAL, and binding of cytosolic labile iron. Calcein-AM readily passes through the cell membrane of viable cells because of the enhanced hydrophobicity as compared to Calcein. When Calcein-AM permeates into the cytoplasm, it is hydrolyzed by esterases in cells to the parent Calcein, a pH-independent, cytosolic fluorescent marker, which remains inside of the cell. The time-dependent recovery of fluorescence in the presence of a given chelator provided a continuous measure for the capacity of the chelator to access the iron/CAL-containing compartment.
Calcein uptake and intracellular fluorescence were determined as follows: K562 erythroleukemia cells were preloaded with calcein (CAL) by incubation with […] of the fluorescent probe CAL-AM for 5 min at 37° C., washed and incubated in HBS medium containing anti-CAL antibodies in order to quench traces of extracellular-associated fluorescence. The suspensions were placed in 96-well plates (100 μl final volume) and analyzed as described above while maintaining the system at 37° C. At the indicated time, the indicated chelator was added so as to reach a final 5 μM concentration.
The values of half maximal time (sec) and fraction of fluorescence recovery were: […]

[3] = n-octanol/water shake-flask distribution coefficient; assay type: physicochemical; conditions: for D in 0.01N HCl / D in 0.01N NaOH / D in H2O: distribution ratio D = Corg/Caq
Text: The partition coefficient (Pow) or the distribution ratio (Dow) between octanol and water are most commonly used measures of the hydrophobicity of compounds. Dow can depend on the concentration of solute, but at reasonably low concentrations. If the solute is in the same form in both phases, Dow becomes constant and is called the partition coefficient Pow. Pow plays an important role in determining the physico-chemical properties and the behaviour of numerous organic compounds in biological systems. Pow is applied to quantitative structure-activity relationship studies, and as a measure of hydrophobicity. All the partition measurements are carried out using a 1-octanol/water shake-flask procedure (Leo, A J. 1991, “Hydrophobic parameter: measurement and calculation”, Methods Enzymol. 202:544-91) or simply by the elution time of solute from HPLC column. Thereafter, the transport properties of the iron-complexes are examined in the water/lipid membrane system (liposomes), which mimics biomembranes much better than the octanol/water system (Breuer et al, 1995).
1-Octanol (Riedel-deHaën, synthesis grade (250-270 nm abs.<0.06) and glass distilled deionized water were used as the partitioning solutions. A Hewlett-Packard 8450A diode array spectrophotometer was used for the quantitative determination of the tested com-pounds in the standard solutions and in the partitioned solutions. The aqueous phase stock solutions were shaken with an excess of 1-octanol to presaturate them and were then allow-ed to stand overnight before use. The 1-octanol stock solutions were also presaturated with 10 mM NaOH and allowed to settle overnight. The experiments were performed in 10-ml stoppered centrifuge tubes. The tubes were inverted gently for 5 min and then, to assure complete phase separation, they were centrifuged for 20 min at 1,000-2,000 g. The aqueous and organic phases were removed separately and analyzed by UV spectrophotometry.
Lipophilicity plays an important role in drug absorption and distribution. The logarithm of the n-octanol/water distribution coefficients (logD) is the most commonly used measure of the lipophilicity of a drug candidate. Here we used an n-octanol/water shake-flask procedure to determine logD. […] In acidic and basic solution, all the test compounds have low log D values, which refer to a good hydrophilicity. This can be explained by the formation of oxinium chloride (in acid) and sodium oxinate (in base) derivatives.

rat brain MAO-A = target: T1, rat brain MAO-A (Rattus norvegicus, UniProt P21396); test: In vitro inhibition of rat brain MAO-A; assay type: biochemical; conditions: rat brain homogenate
T1 construct: from tissue; host or cells: rat brain homogenate, 4500 g pellet
T1 sequence (P21396 1-526): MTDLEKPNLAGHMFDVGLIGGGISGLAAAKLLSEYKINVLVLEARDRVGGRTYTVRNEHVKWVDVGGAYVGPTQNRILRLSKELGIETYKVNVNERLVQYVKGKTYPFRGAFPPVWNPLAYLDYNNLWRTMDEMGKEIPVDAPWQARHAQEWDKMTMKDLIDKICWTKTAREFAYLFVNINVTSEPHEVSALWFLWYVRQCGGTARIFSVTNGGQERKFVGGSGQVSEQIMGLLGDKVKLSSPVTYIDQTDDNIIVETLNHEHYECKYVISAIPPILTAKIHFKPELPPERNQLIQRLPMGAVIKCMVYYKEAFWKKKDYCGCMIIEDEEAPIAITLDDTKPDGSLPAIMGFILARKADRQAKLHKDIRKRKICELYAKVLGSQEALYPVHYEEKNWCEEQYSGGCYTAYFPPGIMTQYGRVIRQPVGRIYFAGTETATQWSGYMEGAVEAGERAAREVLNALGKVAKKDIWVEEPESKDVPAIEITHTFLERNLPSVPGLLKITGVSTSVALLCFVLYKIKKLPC
Experimental: (§1) Rats were decapitated and the brains were quickly taken into a weighted ice-cold sucrose buffer (0.32 M), and their weights were determined. All subsequent procedures were performed at 0-4° C. The brains were homogenized in 0.25 M sucrose (one part tissue to 20 parts sucrose) in a Teflon glass homogenizer followed by the addition of sucrose buffer to a final concentration of 10% homogenate. The homogenates were centrifuged at 600 g for 15 min. The supernatant fraction was taken out and centrifuged at 4500 g for 30 min, the pellet was diluted in 0.32 M sucrose buffer and kept frozen for later assaying of MAO. Protein concentration was determined with Bradford reagent at 595 nm, using bovine serum albumin as a standard.
(§2) The test compound was added to a suitable dilution of the enzyme preparation (70 μg protein for MAO-B and 150 μg MAO-A assay) in 0.05 M phosphate buffer (pH 7.4). The mixture was incubated together with […], a specific inhibitor of MAO-B (for determination of MAO-A) or […] clorgylin, a specific inhibitor of MAO-A (for determination of MAO-B). Incubation was carried for 1 h at 37° C. before addition of ^14C-5-hydroxytryptamine binoxalate ([…]) for determination of MAO-A, or ^14C-phenylethylamine 100 µM for determination of MAO-B, and incubation continued for 30 min or 20 min, respectively. The reaction was stopped with 2 M ice-cold citric acid, and the metabolites were extracted and determined by liquid-scintillation counting in cpm units.
(§3) MAO-A and MAO-B activities were determined in rat brain homogenate in vitro following incubation with varying concentrations of the test compounds.
In another experiment, the in vitro inhibitory activity of HLA20, M32, VK-28, M30, M31, and propargylamine (P) was tested against rat brain MAO-A. The test compounds were added to buffer containing 10^−7M deprenyl and were incubated with the tissue homogenate for 60 min at 37° C. before addition of ^14C-5-hydroxytryptamine. MAO-A activity in presence of the test compound was expressed as a percentage of that in control samples.

rat brain MAO-B = target: T2, rat brain MAO-B (Rattus norvegicus, UniProt P19643); test: In vitro inhibition of rat brain MAO-B; assay type: biochemical; conditions: for IC50: rat brain homogenate
T2 construct: from tissue; host or cells: rat brain homogenate, 4500 g pellet
T2 sequence (P19643 1-520): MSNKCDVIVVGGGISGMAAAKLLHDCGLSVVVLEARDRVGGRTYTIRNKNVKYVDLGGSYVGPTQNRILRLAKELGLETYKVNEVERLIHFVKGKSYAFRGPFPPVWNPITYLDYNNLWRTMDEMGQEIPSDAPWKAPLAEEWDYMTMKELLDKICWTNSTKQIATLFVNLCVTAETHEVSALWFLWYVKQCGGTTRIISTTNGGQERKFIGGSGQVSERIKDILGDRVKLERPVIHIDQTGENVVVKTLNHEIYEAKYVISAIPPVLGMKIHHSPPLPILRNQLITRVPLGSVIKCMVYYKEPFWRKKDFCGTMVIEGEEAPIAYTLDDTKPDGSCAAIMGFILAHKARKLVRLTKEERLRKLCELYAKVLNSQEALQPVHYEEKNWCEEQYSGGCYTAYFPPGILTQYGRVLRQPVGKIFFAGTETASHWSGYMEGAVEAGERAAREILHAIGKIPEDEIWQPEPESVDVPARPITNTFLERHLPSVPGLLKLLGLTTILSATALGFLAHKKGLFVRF
Experimental: as §1, §2, §3
MAO-B activity in presence of the test compound was expressed as a percentage of that in control samples.

`Cc1c(O)c(=O)ccn1C` [Compound L1, 1,2-dimethyl-3-hydroxy-pyridin-4-one, reference compound] showed an EC50 ([1]; FIG. 1A) of 8.3 µM, an EC50 ([1]; FIG. 1B) of 8.4 µM and an EC50 ([1]; FIG. 1C) of 6.6 µM.
For `N[C@H](CSCc1ccc(O)c2ncccc12)C(=O)O` [Compound M11, S-(8-hydroxyquinolin-5-ylmethyl)-D-cysteine], the EC50 ([1]; FIG. 1C) was 5.4 µM.
For `CC(=O)N(O)CCCCCNC(=O)CCC(=O)N(O)CCCCCNC(=O)CCC(=O)N(O)CCCCCN` [DFO, desferrioxamine B, reference compound], the EC50 ([1]; FIG. 1A) was 0.5 µM, the EC50 ([1]; FIG. 1B) was 0.5 µM and the EC50 ([1]; FIG. 1C) was 0.5 µM.
`NC(Cc1ccc(O)c2ncccc12)C(=O)O` (racemic) [HLM8, DL-3-(8-hydroxyquinolin-5-yl)alanine] gave an EC50 ([1]; FIG. 1A) of 6 µM, a half maximal time ([2]; FIG. 2A) of 600 s and a logD [3] of less than -2. For the same compound, the “D in 0.01N HCl” value ([3]; 0.01N HCl) was 0.0031, the “D in 0.01N NaOH” value ([3]; 0.01N NaOH) was 0.020 and the “D in H2O” value ([3]; H2O) was 0.0049. The logD ([3]; pH 2) was less than -2 and the logD ([3]; pH 12) was -1.7.
Work on `C#CCN(C)Cc1ccc(O)c2ncccc12` [Compound M30] yielded an IC50 (rat brain MAO-A) of less than 0.1 µM and an IC50 (rat brain MAO-B) of less than 0.1 µM.
`N[C@@H](Cc1ccc(O)c2ncccc12)C(=O)O` [Compound M10, L-3-(8-hydroxyquinolin-5-yl)alanine] gave an EC50 ([1]; FIG. 1B) of 9.85 µM and a half maximal time ([2]; FIG. 2B) of 1050 s.
Work on `N[C@@H](CSCc1ccc(O)c2ncccc12)C(=O)O` [Compound M12, S-(8-hydroxyquinolin-5-ylmethyl)-L-cysteine] yielded an EC50 ([1]; FIG. 1C) of 6 µM.
`O=C(NN=Cc1ccccc1O)c1ccncc1` [SIH, salicylaldehyde isonicotinoyl hydrazone, reference compound] showed a half maximal time ([2]; FIG. 2A) of 125 s and a half maximal time ([2]; FIG. 2C) of 100 s.
With Fmoc-KKC(HQ)L-NH2 [Compound M7] the EC50 ([1]; FIG. 1C) was 3.4 µM.
In the case of `C#CCNC(Cc1ccc(O)c2ncccc12)C(=O)OCC` (centres unmarked) [Compound M31], the “effect on MAO-A” value (rat brain MAO-A) is reported as “almost no effect” and the inhibition at 100 µM (rat brain MAO-B; 100 μM, read-out: inhibition of MAO-B) is reported as 14.2%.
With `C#CCN` [Propargylamine, propargylamine, reference compound] the IC50 (rat brain MAO-A) was 66.3 µM and the IC50 (rat brain MAO-B) was 10.1 µM.
`CCOC(=O)N1CCN(Cc2ccc(O)c3ncccc23)CC1` [HLA16, ethyl 4-(8-hydroxyquinolin-5-ylmethyl)-1-piperazine carboxylate] gave an EC50 ([1]; FIG. 1A) of 3.5 µM, an EC50 ([1]; FIG. 1B) of 4.4 µM and a half maximal time ([2]; FIG. 2A) of 225 s. For the same compound, the half maximal time ([2]; FIG. 2B) was 220 s, the logD [3] was 1.79 and the “D in 0.01N HCl” value ([3]; 0.01N HCl) was 0.018. The “D in 0.01N NaOH” value ([3]; 0.01N NaOH) was 2.44, the “D in H2O” value ([3]; H2O) was 62.96 and the logD ([3]; pH 2) was -1.74. The logD ([3]; pH 12) was 0.39.
With `N[C@H](Cc1ccc(O)c2ncccc12)C(=O)O` [Compound M9, D-3-(8-hydroxyquinolin-5-yl)alanine] the EC50 ([1]; FIG. 1B) was 9.7 µM.
In the case of `CCOC(=O)C(Cc1ccc(O)c2ncccc12)(NC(C)=O)C(=O)OCC`, the EC50 ([1]; FIG. 1A) is reported as 5 µM, the logD ([3]; H2O, read-out: LogD in H2O) is reported as 2.19 and the “D in 0.01N HCl” value ([3]; 0.01N HCl) is reported as 0.043. For the same compound, the “D in 0.01N NaOH” value ([3]; 0.01N NaOH) was 0.097, the “D in H2O” value ([3]; H2O) was 155.68 and the logD ([3]; pH 2, 0.01N HCl, read-out: LogD in 0.01N HCl) was -1.37. It also gave a logD ([3]; pH 12, 0.01N NaOH, read-out: LogD in 0.01N NaOH) of -1.01.
In the case of `CCOC(=O)C(N)Cc1ccc(O)c2ncccc12` (racemic) [HLM9, DL-3-(8-hydroxyquinolin-5-yl)alanine ethyl ester], the EC50 ([1]; FIG. 1A) is reported as 7.2 µM, the half maximal time ([2]; FIG. 2A) is reported as 200 s and the logD [3] is reported as -1.7. The “D in 0.01N NaOH” value ([3]; 0.01N NaOH) was 0.0014, the “D in H2O” value ([3]; H2O) was 0.018 and the logD ([3]; pH 5.64) was -1.42. The logD ([3]; pH 12) was less than -2 and the D ([3]; phosphate buffer (pH = 5.64), printed in the 0.01N HCl column) was 0.038^b.

From patent US8058442B2 (Technion Research and Development Foundation Ltd., priority 2002, dated 2011)
